The results in this text go back to US20240343712A1, “SOLID-STATE FORMS OF 2-(3-(4-(1H-INDAZOL-5-YLAMINO)QUINAZOLIN-2-YL)PHENOXY)-N-ISOPROPYLACETAMIDE METHANE SULFONIC ACID SALT” (Sandoz AG, priority 2021, published 2024).

Structures are written as SMILES.

A short description of series [1]: Gravimetric moisture sorption (GMS). The format is physicochemical. The note with it: (25 ± 0.1)° C.; for Comment (hygroscopicity / behaviour upon moisture contact) / Δm (0-80% RH): 0-80% RH; for Δm (0-80% RH): gravimetric moisture sorption. On the procedure:
Moisture sorption isotherms were recorded with an SPSx-1μ moisture sorption analyzer (ProUmid, Ulm). The measurement cycle was started at ambient relative humidity (RH) of 40%. Relative humidity was then decreased to 5% RH in 5% steps, followed by a further decrease to 3% RH and to 0% RH. Afterwards RH was increased from 0% to 90% in a sorption cycle and decreased to 0% in a desorption cycle in 5% steps. Finally RH was increased from 0 to 40% in 5% steps.
The time per step was set to a minimum of 2 hours and a maximum of 6 hours. If an equilibrium condition with a constant mass of +0.01% within 1 hour was reached before the maximum time for all examined samples the sequential humidity step was applied before the maximum time of 6 hours. If no equilibrium was achieved the consecutive humidity step was applied after the maximum time of 6 hours. The temperature was 25±0.1° C.

Series [2] is described as follows: Thermogravimetric analysis (TGA). The format is physicochemical. The settings on record: for stability against temperature stress: DSC and TGA, Examples 7 and 8. As for the experimental part:
TGA was performed on a Mettler TGA/DSC 1 instrument. The samples (5.15 mg Form I, 5.69 Form II, 3.97 mg Form HyA, and 8.55 mg Form HyB) were each heated in a 100 microliter aluminium pan closed with an aluminium lid from 25 to 300° C. at a rate of 10 K/min. The lid was automatically pierced at the beginning of the measurement. Nitrogen (purge rate 50 mL/min) was used as purge gas.

For the molecule `CC(C)NC(=O)COc1cccc(-c2nc(Nc3ccc4[nH]ncc4c3)c3ccccc3n2)c1.CS(=O)(=O)O` [Amorphous mesylate, 2-(3-(4-(1H-indazol-5-ylamino)quinazolin-2-yl)phenoxy)-N-isopropylacetamide methane sulfonic acid], in series [1], the “Comment (hygroscopicity / behaviour upon moisture contact)” value is recorded as “Very hygroscopic” and the “Δm (0-80% RH)” value is on record as “+21.2 w % w-%”. Moreover, the “Comment (hygroscopicity / behaviour upon moisture contact)” value in series [1] (listed as amorphous belumosudil mesylate) was “moderately hygroscopic”.
Regarding `CC(C)NC(=O)COc1cccc(-c2nc(Nc3ccc4[nH]ncc4c3)c3ccccc3n2)c1.CS(=O)(=O)O` [Mesylate Form HyA, 2-(3-(4-(1H-indazol-5-ylamino)quinazolin-2-yl)phenoxy)-N-isopropylacetamide methane sulfonic acid], the “Relative humidity of dehydration (release of crystal water)” value in series [1] was “Dehydration below 3% RH”. In series [2] (0-130° C., 10 K/min, nitrogen), the “Δm (0-130° C.), TGA mass loss” value is listed as “Δm (0-130° C.) = 5.97%, corresponds to a dihydrate”.
As for `CC(C)NC(=O)COc1cccc(-c2nc(Nc3ccc4[nH]ncc4c3)c3ccccc3n2)c1.CS(=O)(=O)O` [Mesylate Form HyB, 2-(3-(4-(1H-indazol-5-ylamino)quinazolin-2-yl)phenoxy)-N-isopropylacetamide methane sulfonic acid], the “Δm (0-140° C.), TGA mass loss” value in series [2] (0-140° C., 10 K/min, nitrogen) was “Δm (0-140° C.) = 3.19%, corresponds to a monohydrate”.
On to `CC(C)NC(=O)COc1cccc(-c2nc(Nc3ccc4[nH]ncc4c3)c3ccccc3n2)c1.CS(=O)(=O)O` [Mesylate Form I, 2-(3-(4-(1H-indazol-5-ylamino)quinazolin-2-yl)phenoxy)-N-isopropylacetamide methane sulfonic acid], for which, in series [1], the “Comment (hygroscopicity / behaviour upon moisture contact)” value is listed as “Slightly hygroscopic” and the “Δm (0-80% RH)” value is “+1.9 w-%”. Moreover, the “Comment (hygroscopicity / behaviour upon moisture contact)” value in series [1] (listed as belumosudil mesylate Form I) is on record as “only slightly hygroscopic”. Besides, in series [2] (0-250° C., 10 K/min, nitrogen), the “Δm (0-250° C.), TGA mass loss” value is “Δm (0-250° C.) = 0.87%, anhydrate”. The “stability against temperature stress” value in series [2] is on record as “stable against temperature stress”.
On to `CC(C)NC(=O)COc1cccc(-c2nc(Nc3ccc4[nH]ncc4c3)c3ccccc3n2)c1.CS(=O)(=O)O` [Mesylate Form II, 2-(3-(4-(1H-indazol-5-ylamino)quinazolin-2-yl)phenoxy)-N-isopropylacetamide methane sulfonic acid], for which, in series [1], the “Comment (hygroscopicity / behaviour upon moisture contact)” value is “Slightly hygroscopic” and the “Δm (0-80% RH)” value is recorded as “+1.4 w-%”. Besides, the “Comment (hygroscopicity / behaviour upon moisture contact)” value in series [1] (listed as Form II) is given as “only slightly hygroscopic”. In addition, the “Δm (0-100° C.), TGA mass loss” value in series [2] (0-100° C., 10 K/min, nitrogen) is listed as “Δm (0-100° C.) = 0.32%, anhydrate”. In addition, the “stability against temperature stress” value in series [2] is “stable against temperature stress”.
